In US10028942B2 (priority 2013, dated 2018):

Each compound was assayed against T1, DLK (Homo sapiens, UniProt Q12852) (assay: not given). Conditions: read-out: DLK (Ki) μM; TR-FRET; 5 nM GST-tagged DLK (catalytic domain aa 1-520), 40 nM HIS-MKK4 K131M substrate, 30 μM ATP, 60 minutes.
T1 sequence (Q12852 1-520): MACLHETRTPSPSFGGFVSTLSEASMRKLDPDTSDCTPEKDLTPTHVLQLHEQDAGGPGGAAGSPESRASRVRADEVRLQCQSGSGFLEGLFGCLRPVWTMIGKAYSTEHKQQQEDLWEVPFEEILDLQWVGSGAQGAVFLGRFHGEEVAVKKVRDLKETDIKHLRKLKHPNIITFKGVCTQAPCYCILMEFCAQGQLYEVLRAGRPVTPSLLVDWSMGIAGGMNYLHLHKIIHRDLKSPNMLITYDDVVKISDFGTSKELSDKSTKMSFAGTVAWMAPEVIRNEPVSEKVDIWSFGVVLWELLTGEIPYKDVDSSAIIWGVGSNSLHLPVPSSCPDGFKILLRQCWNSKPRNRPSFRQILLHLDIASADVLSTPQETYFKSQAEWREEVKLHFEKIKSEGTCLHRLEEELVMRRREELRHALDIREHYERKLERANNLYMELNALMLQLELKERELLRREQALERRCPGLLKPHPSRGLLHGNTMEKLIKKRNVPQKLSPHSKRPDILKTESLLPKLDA
COc1cc(-c2cc([C@H]3[C@@H]4CN(C5COC5)C[C@@H]43)n(C3CCCC3)n2)cnc1N [Compound 157, 5-(1-cyclopentyl-5-((1R,5S,6r)-3-(oxe-tan-3-yl)-3-azabicyclo[3.1.0]hexan-6-yl)-1H-pyrazol-3-yl)-3-methoxy-pyridin-2-amine] showed a Ki of 0.035 µM. In the case of Nc1ncc(-c2cc([C@H]3[C@@H]4CN(C5COC5)C[C@@H]43)n(CC3CC3)n2)cc1Cl [Compound 154, 3-chloro-5-(1-(cyclopropylmethyl)-5-((1R,5S,6r)-3-(oxetan-3-yl)-3-azabicyclo[3.1.0]hexan-6-yl)-1H-pyrazol-3-yl)pyridin-2-amine], the Ki is reported as 0.025 µM. CC(=O)N1CC(c2cc(-c3cnc4[nH]cc(C(F)(F)F)c4c3)nn2C)C1 [Compound 11, 1-(3-(1-methyl-3-(3-(trifluoromethyl)-1H-pyrrolo[2,3-b]pyridin-5-yl)-1H-pyrazol-5-yl)azetidin-1-yl)ethanone] showed a Ki of 0.034 µM. With FC1(F)CCC(n2nc(-c3cnc4[nH]cc(C(F)(F)F)c4c3)cc2C2CCOC2)C1 (stereo not drawn) [Compound 16, 5-(1-(3,3-difluorocyclopentyl)-5-(tetrahydrofuran-3-yl)-1H-pyrazol-3-yl)-3-(trifluoromethyl)-1H-pyrrolo[2,3-b]pyridine] the Ki was 0.013 µM. Cc1c[nH]c2ncc(-c3cc(C4CCN(C5COC5)C4)n(C)n3)cc12 (stereo not drawn) [Compound 63, 3-methyl-5-(1-methyl-5-(1-(oxetan-3-yl)pyrrolidin-3-yl)-1H-pyrazol-3-yl)-1H-pyrrolo[2,3-b]pyridine] gave a Ki of 0.034 µM. Work on Nc1ncc(-c2cc([C@H]3[C@@H]4CN(C5COC5)C[C@@H]43)n(C3CCC3)n2)cc1OC(F)F [Compound 151, 5-(1-cyclobutyl-5-((1R,5S,6r)-3-(oxe-tan-3-yl)-3-azabicyclo[3.1.0]hexan-6-yl)-1H-pyrazol-3-yl)-3-(difluorometh-oxy)pyridin-2-amine] yielded a Ki of 0.0055 µM. Work on Nc1ncc(-c2cc([C@H]3[C@@H]4COC[C@@H]43)n(C3CCCC3)n2)cc1Cl [Compound 105, 5-(5-((1R,5S,6s)-3-oxabicyclo[3.1.0]hexan-6-yl)-1-cyclopentyl-1H-pyra-zol-3-yl)-3-chloropyridin-2-amine] yielded a Ki of 0.096 µM. With CC(C)n1nc(-c2cnc(N)c(C(F)(F)F)c2)cc1[C@H]1[C@@H]2CN(S(C)(=O)=O)C[C@@H]21 [Compound 108, 5-(1-isopropyl-5-((1R,5S,6r)-3-(meth-ylsulfonyl)-3-azabicyclo[3.1.0]hex-an-6-yl)-1H-pyrazol-3-yl)-3-(trifluoro-methyl)pyridin-2-amine] the Ki was 0.0049 µM.

Each compound was assayed against T1, DLK (assay: biochemical). Conditions: not given.
COC1(c2cc(-c3cnc(N)c(C(F)(F)F)c3)nn2C(C)C)CCN(C2COC2)CC1 [Compound 103, 5-(1-isopropyl-5-(4-methoxy-1-(oxetan-3-yl)piperidin-4-yl)-1H-pyrazol-3-yl)-3-(trifluoromethyl)pyridin-2-amine] showed a Ki of over 1 µM. In the case of Cc1c[nH]c2ncc(-c3cc(C4CCOC4)n(CC4CC4)n3)cc12 (racemic) [Compound 13, 5-(1-(cyclopropylmethyl)-5-(tetrahydrofuran-3-yl)-1H-pyrazol-3-yl)-3-methyl-1H-pyrrolo[2,3-b]pyridine], the Ki is reported as 0.029 µM. CC(C)n1nc(-c2cnc3[nH]cnc3c2)cc1C1CN(C2COC2)C1 [Compound 62, 6-(1-isopropyl-5-(1-(oxetan-3-yl)aze-tidin-3-yl)-1H-pyrazol-3-yl)-3H-imi-dazo[4,5-b]pyridine] gave a Ki of over 1 µM. With CC(C)n1nc(-c2cnc3c(c2)CCCN3)cc1C1CCN(C2COC2)CC1 [Compound 96, 6-(1-isopropyl-5-(1-(oxetan-3-yl)pipe-ridin-4-yl)-1H-pyrazol-3-yl)-1,2,3,4-tetahydro-1,8-naphthyridine] the Ki was over 1 µM. Work on CC(C)n1nc(-c2cnc3[nH]cnc3c2)cc1C1CCN(C2COC2)CC1 [Compound 79, 6-(1-isopropyl-5-(1-(oxetan-3-yl)pipe-ridin-4-yl)-1H-pyrazol-3-yl)-3H-imi-dazo[4,5-b]pyridine] yielded a Ki of over 1 µM. Work on Nc1ncc(-c2cc(C3CCOCC3)n(C3CC(F)(F)C3)n2)cc1F [Compound 37, 5-(1-(3,3-difluorocyclobutyl)-5-(tetra-hydro-2H-pyran-4-yl)-1H-pyrazol-3-yl)-3-fluoropyridin-2-amine] yielded a Ki of over 1 µM. With CC(C)n1nc(-c2cnc(N)c(C(F)F)c2)cc1C(C)(C)C#N [Compound 5, 2-(3-(6-amino-5-(difluoromethyl)pyridin-3-yl)-1-isopropyl-1H-pyrazol-5-yl)-2-methylpropanenitrile] the Ki was over 1 µM. CC1(Cn2nc(-c3cnc(N)c(Cl)c3)cc2[C@H]2[C@@H]3CN(CC(F)(F)F)C[C@@H]32)COC1 [Compound 112, 3-chloro-5-(1-((3-methyloxetan-3-yl)methyl)-5-((1R,5S,6r)-3-(2,2,2-trifluoro-ethyl)-3-azabicyclo[3.1.0]hexan-6-yl)-1H-pyrazol-3-yl)pyridin-2-amine] gave a Ki of over 1 µM. In the case of CC(C)n1nc(-c2cnc3c(c2)C(C)(C)C(=O)N3)cc1C1CN(C2COC2)C1 [Compound 61, 5-(1-isopropyl-5-(1-(oxetan-3-yl)aze-tidin-3-yl)-1H-pyrazol-3-yl)-3,3-dimeth-yl-1H-pyrrolo[2,3-b]pyridin-2(3H)-one], the Ki is reported as over 1 µM. Work on CC(C)n1nc(-c2cnc3c(c2)CC(=O)N3)cc1C1CCN(C2COC2)CC1 [Compound 73, 5-(1-isopropyl-5-(1-(oxetan-3-yl)pipe-ridin-4-yl)-1H-pyrazol-3-yl)-1H-pyrro-lo[2,3-b]pyridin-2(3H)-one] yielded a Ki of over 1 µM. CC(C)n1nc(-c2cnc3c(c2)C(C)(C)C(=O)N3)cc1C1CCN(C2COC2)CC1 [Compound 80, 5-(1-isopropyl-5-(1-(oxetan-3-yl)pipe-ridin-4-yl)-1H-pyrazol-3-yl)-3,3-di-methyl-1H-pyrrolo[2,3-b]pyridin-2 (3H)-one] gave a Ki of over 1 µM. Cc1cc(-c2cc(C3CCN(C4COC4)CC3)n(C(C)C)n2)cnc1N [Compound 82, 5-(1-isopropyl-5-(1-(oxetan-3-yl)pipe-ridin-4-yl)-1H-pyrazol-3-yl)-3-meth-ylpyridin-2-amine] showed a Ki of over 1 µM. In the case of CC(C)n1nc(-c2cnc3c(c2)OCCN3)cc1C1CCN(C2COC2)CC1 [Compound 94, 7-(1-isopropyl-5-(1-(oxetan-3-yl)pipe-ridin-4-yl)-1H-pyrazol-3-yl)-3,4-di-hydro-2H-pyrido[3,2-b][1,4]oxazine], the Ki is reported as over 1 µM.
